Legend:
plasma hemostasis = assay: Partial activated thromboplastin time (PATT) after intravenous administration; format: in vivo, rabbit; conditions: for effect on the PATT (overall): doses 15.0, 30.0, 60.0 mg/kg
Procedure: The investigations were performed on 72 rabbits of the “Chinchilla” breed with a mass of 2.5±0.3 kg, who were administered which solutions of compounds 2, 15, 21, 37 in doses of 15, 30 and 60 mg/kg intravenously. The experiments included the thrombin-test (series No. 7300) and the coagulability-test (series No. 5000) purchased from the scientific-and-production association (SPA) “Renam”, thromboplastin (series No. 240600) and calcium chloride purchased from the SPA “MedioLab”
The static parameters of the blood and plasma coagulation (partial activated thromboplastin time, thrombin time, maximum coagulation activity (test for auto coagulation) were determined using the Behnk Electronic coagulometer (Germany). The operating principle of this instrument is based on the fact that the formed blood clot breaks the contacts of the pulse counter in the flask-pin circuit, said pin permanently oscillating in a vertical plane. The moment of formation of the clot is registered by stopping the stop watch hand.
The measurements were effected at a constant temperature of 37° C. maintained by a temperature control unit.
Compounds 2, 15, 21, 37 according to the invention at a concentration of 15, 30 and 60 mg/kg were introduced to the above experimental animals intravenously, and their blood samples were taken off 15, 30, 60 and 120 minutes after the administration.
The blood plasma samples deprived of thrombocytes obtained as described above in an amount of 0.1 ml were put in a coagulometer flask and heated for 1 minute at 37° C., then 0.1 ml of 0.277% solution of calcium chloride was added and the blood clotting time was registered. The coagulation time T in seconds of the control plasma and plasma obtained after intravenous administration after 15, 30, 60 and 120 minutes were compared.

[1] = tested on: indicator enzymes in blood plasma; assay: Morphine abstinence model: indicator enzymes AST, ALT, γ-GTP in blood plasma; format: in vivo, rats Wistar; conditions: for ALT, Ci, mE/l, Control + compound / AST, Ci, mE/l, Control + compound / γ-GTP, Ci, mE/l, Control + compound: compound alone 20.0 mg/kg intramuscularly; for ALT, Ci, mE/l, control + Morphine + Compound / AST, Ci, mE/l, control + Morphine + Compound / γ-GTP, Ci, mE/l, control + Morphine + Compound: morphinized rats then compound 20.0 mg/kg intramuscularly
Procedure: (§1) The experiments were carried out on rats in series of 7 animals on each compound according to the invention. Non-morphinized animal with not administered with compounds according to the invention were used as a control group. […] Then the rats were decapitated, the blood from somnolent arteries was collected in test tubes with solution EDTA as an anticoagulant, centrifuged at 1500 g for 15 minutes at 4° C.
To estimate possible hepatoprotective action of the compounds according to the invention under conditions of development of an oxidizing stress in the liver cells, effect of these compounds on the most important biochemical blood indexes, in particular, on the content in blood plasma of indicator enzyme of aspartateaminotransferase (AST), alanineaminotransferase (ALT), γ-glutamiletranspeptidase (γ-GTP) was investigated. The content of enzymes was estimated by their catalyzing activity in blood plasma.
The activity of AST, ALT and γ-GTP was determined by means of diagnostic sets DiaSys, Germany.

[2] = tested on: metabolism of nitrogen oxide; assay: Morphine abstinence model: nitrites and nitrates NOX− in blood plasma, liver and brain; format: in vivo, rats Wistar; conditions: for Nitrites in blood plasma, Control + Compound / Nitrites in brain, Cortex of cerebrum, Control + Compound / Nitrites in brain, Hypothalamus, Control + Compound / Nitrites in brain, Mesencephalon, Control + Compound / Nitrites in liver, Control + Compound: compound alone 20.0 mg/kg intramuscularly; for Nitrites in blood plasma, Control + Morphine + compound / Nitrites in brain, Cortex of cerebrum, Control + Morphine + compound / Nitrites in brain, Hypothalamus, Control + Morphine + compound / Nitrites in brain, Mesencephalon, Control + Morphine + compound / Nitrites in liver, Control + Morphine + compound: morphinized rats then compound 20.0 mg/kg intramuscularly
Procedure: as §1
To estimate the intensity of metabolism of nitrogen oxide in rats, quantitative determination of stable metabolites of nitrogen oxide—nitrites and nitrates NOX^− in the blood plasma, supernatanates of the liver and thymus gland, a study was conducted by a spectrometric method, and in the brain supernatanates by a […] method.
The spectrometric method is based the reaction of nitrites with the Griss reagent (a mixture of 2% solution of sulfanilamide and 0.2% N-(1-naphthyl)ethylene diamine. At the first step the nitrite reacts with sulfanilamide with formation of diazonium salt, and then with the second component to form azo dye with an adsorption maximum at 540 nm. For reduction of nitrates into nitrites, a fermentative method was used with bacterial reductase nitrate (Grisham M. B. et al., 1995). The samples of plasma and supernatant of the liver deproteinizated at 100° C. for 5 minutes incubated for 30 minutes at 37° C. in 50.0 mM of HEPES pH 7.4 in the presence of 0.2 unit/ml of Aspergillus reductase nitrate, 5.0 mkM of FAD and 0.1 mM of NAD-Ph. At the end of the reaction lactate dehydrogenase and pyruvate were added for isolation of NAD-Ph interfering with the Griss reaction. Then the Griss reagent was added and after 10-minute incubation the light absorption of the samples was measured at 540 nm. To amount of NOX^− was calculated using sodium nitrate as a standard.
The fluorometric method is based on calculation of the nitrite level by the intensity fluorescence of 2,3-diaminonaphthotriazole, a product of reaction of 2,3-diaminonaphthalene (DAN) and nitrite in an acidic medium (Misko T. R., Schilling R. J., Salvemini D. et al. “A fluorometric assay for the measurement of nitrite of biological samples”. Anal. Biochem., 1993, v. 214, p. 11-16). The brain supernatants deproteinizated at 100° C. were placed in a nitrite regenerating system containing 0.125 unit/ml of nitrate reductases, 25 mkM NADPh and 25 mkM FAD prepared in a 20-mM Tris-HCl buffer with pH 7.6 and incubated for 30 minutes at 37° C. The lactatedehydrogenase/pyruvate system was used for oxidation of the NADPh. Then 316 mkM of the DAN solution in 0.62 M of hydrochloric acids were added and the mixture was incubated for 10 minutes in darkness.
280 mM of NaOH were added for stabilization of the fluorescence of the formed 2,3-diaminonaphthotriazole. The fluorescence intensity was measured in the spectrofluorimeter Hitachi F-3000 at a wavelength of excitation of 365 nm and an emission of 405 nm. The concentration of NOX^− in the brain was calculated by means of a standard solution of sodium nitrate.

Compound	T, s after 15 minutes (PATT) (plasma hemostasis; dose 15.0 mg/kg intravenously) [s]	T, s after 30 minutes (PATT) (plasma hemostasis; dose 15.0 mg/kg intravenously) [s]	T, s after 60 minutes (PATT) (plasma hemostasis; dose 15.0 mg/kg intravenously) [s]	T, s after 120 minutes (PATT) (plasma hemostasis; dose 15.0 mg/kg intravenously) [s]	T, s after 15 minutes (PATT) (plasma hemostasis; dose 30.0 mg/kg intravenously) [s]	T, s after 30 minutes (PATT) (plasma hemostasis; dose 30.0 mg/kg intravenously) [s]	T, s after 60 minutes (PATT) (plasma hemostasis; dose 30.0 mg/kg intravenously) [s]	T, s after 120 minutes (PATT) (plasma hemostasis; dose 30.0 mg/kg intravenously) [s]	T, s after 15 minutes (PATT) (plasma hemostasis; dose 60.0 mg/kg intravenously) [s]	T, s after 30 minutes (PATT) (plasma hemostasis; dose 60.0 mg/kg intravenously) [s]	T, s after 60 minutes (PATT) (plasma hemostasis; dose 60.0 mg/kg intravenously) [s]	T, s after 120 minutes (PATT) (plasma hemostasis; dose 60.0 mg/kg intravenously) [s]	effect on the PATT (overall) (plasma hemostasis)	ALT, Ci, mE/l, Control + compound [1] [mE/l]	AST, Ci, mE/l, Control + compound [1] [mE/l]	γ-GTP, Ci, mE/l, Control + compound [1] [mE/l]	ALT, Ci, mE/l, control + Morphine + Compound [1] [mE/l]	AST, Ci, mE/l, control + Morphine + Compound [1] [mE/l]	γ-GTP, Ci, mE/l, control + Morphine + Compound [1] [mE/l]	Nitrites in blood plasma, Control + Compound [2] [mkmol/ml]	also measured
Nc1cnc2c(=O)n([C@@H]3O[C@H](CO)[C@@H](O)[C@H]3O)[nH]c(=O)c2n1.[Na] [Compound 21, sodium salt of 3-amino-7-(β-D-ribofuranosile)pyrazine[2,3-d]-6H-pyridazine-5,8-dione]	37.1 ± 0.1	37.2 ± 0.1	36.9 ± 0.1	37.0 ± 0.2	32.8 ± 0.4	32.0 ± 0.1	32.2 ± 0.1	32.1 ± 0.1	32.0 ± 0.4	32.1 ± 0.2	32.0 ± 0.1	32.3 ± 0.2	do not affect the PATT								
O=c1[nH][nH]c(=O)c2nccnc12.[Li] [Compound 25, lithium salt of pyrazine[2,3-d]-6H-pyridazine-5,8-dione]														115.27 ± 1.09	177.34 ± 6.13	7.57 ± 1.93	121.96 ± 3.4	196.46 ± 15.34	11.37 ± 1.54	17.10 ± 2.05	Nitrites in brain, Cortex of cerebrum, Control + Compound [2]: 4.47 ± 0.43 nmol/mg of protein; Nitrites in brain, Hypothalamus, Control + Compound [2]: 6.87 ± 0.80 nmol/mg of protein; Nitrites in brain, Mesencephalon, Control + Compound [2]: 6.98 ± 1.02 nmol/mg of protein; Nitrites in liver, Control + Compound [2]: 0.307 ± 0.012 nmol/mg of protein; Nitrites in blood plasma, Control + Morphine + compound [2]: 16.78 ± 2.11 mkmol/ml; Nitrites in brain, Cortex of cerebrum, Control + Morphine + compound [2]: 4.91 ± 0.32 nmol/mg of protein; Nitrites in brain, Hypothalamus, Control + Morphine + compound [2]: 6.67 ± 0.79 nmol/mg of protein; Nitrites in brain, Mesencephalon, Control + Morphine + compound [2]: 5.91 ± 0.74 nmol/mg of protein; Nitrites in liver, Control + Morphine + compound [2]: 0.287 ± 0.01 nmol/mg of protein
O=c1[nH][nH]c(=O)c2c(Br)ncnc12.[K] [Compound 37, potassium salt of 4-bromine-pyrimido[4,5-D]-6H-pyridazine-5,8-dione]	37.0 ± 0.2	37.1 ± 0.1	37.0 ± 0.2	36.9 ± 0.1	33.1 ± 0.1	33.3 ± 0.1	33.3 ± 0.2	33.0 ± 0.4	32.5 ± 0.1	32.3 ± 0.2	32.4 ± 0.1	32.6 ± 0.3	do not affect the PATT	113.84 ± 2.0	174.82 ± 4.91	8.14 ± 2.64	120.84 ± 5.20	193.58 ± 14.18	10.32 ± 2.67	16.13 ± 1.80	Nitrites in brain, Cortex of cerebrum, Control + Compound [2]: 4.36 ± 0.24 nmol/mg of protein; Nitrites in brain, Hypothalamus, Control + Compound [2]: 6.79 ± 0.92 nmol/mg of protein; Nitrites in brain, Mesencephalon, Control + Compound [2]: 6.84 ± 0.56 nmol/mg of protein; Nitrites in liver, Control + Compound [2]: 0.262 ± 0.018 nmol/mg of protein; Nitrites in blood plasma, Control + Morphine + compound [2]: 15.33 ± 0.87 mkmol/ml; Nitrites in brain, Cortex of cerebrum, Control + Morphine + compound [2]: 4.77 ± 0.28 nmol/mg of protein; Nitrites in brain, Hypothalamus, Control + Morphine + compound [2]: 6.52 ± 0.83 nmol/mg of protein; Nitrites in brain, Mesencephalon, Control + Morphine + compound [2]: 5.63 ± 0.37 nmol/mg of protein; Nitrites in liver, Control + Morphine + compound [2]: 0.274 ± 0.01 nmol/mg of protein
